Tests used:
Pyrenophora teres = Pyrenophora teres / barley / leaf disc preventative (net blotch); type: in vivo; settings: foliar, barley leaf segments cv. Hasso, inoculated 2 days after application, compared to untreated control
Protocol: Example B10. Pyrenophora teres/Barley/Leaf Disc Preventative (Net Blotch) Barley leaf segments cv. Hasso are placed on agar in a multiwell plate (24-well format) and sprayed with the formulated test compound diluted in water. The leaf segments are inoculated with a spore suspension of the fungus 2 days after application. The inoculated leaf segments are incubated at 20° C. and 65% rh under a light regime of 12 h light/12 h darkness in a climate cabinet and the activity of a compound is assessed as disease control compared to untreated when an appropriate level of disease damage appears in untreated check leaf segments (5-7 days after application). […] […]-25, and P-26.

[1] = tested on: Magnaporthe grisea (Pyricularia oryzae); experiment: whole plant or invertebrate; type: in vivo; settings: foliar, read-out: control of Magnaporthe grisea
[2] = tested on: Glomerella lagenarium (Colletotrichum lagenarium); experiment: Glomerella lagenarium (Colletotrichum lagenarium) / liquid culture (anthracnose); type: cell-based; settings: Colletotrichum orbiculare, liquid culture (PDB), growth inhibition photometrically 3-4 days after application, compared to untreated control
Protocol: Example B3. Glomerella lagenarium (Colletotrichum lagenarium)/Liquid Culture (Anthracnose) Conidia of the fungus from cryogenic storage are directly mixed into nutrient broth (PDB potato dextrose broth). After placing a (DMSO) solution of test compound into a microtiter plate (96-well format), the nutrient broth containing the fungal spores is added. The test plates are incubated at 24° C. and the inhibition of growth is measured photometrically 3-4 days after application. […] […]-25, and P-26.

[3] = tested on: Monographella nivalis (Microdochium nivale); experiment: Monographella nivalis (Microdochium nivale) / liquid culture (foot rot cereals); type: cell-based; settings: liquid culture (PDB), growth inhibition photometrically 4-5 days after application, compared to untreated control
Protocol: Example B6. Monographella nivalis (Microdochium nivale)/Liquid Culture (Foot Rot Cereals) Conidia of the fungus from cryogenic storage are directly mixed into nutrient broth (PDB potato dextrose broth). After placing a (DMSO) solution of test compound into a microtiter plate (96-well format), the nutrient broth containing the fungal spores is added. The test plates are incubated at 24° C. and the inhibition of growth is determined photometrically 4-5 days after application. […] […]-25, and P-26.

[4] = tested on: Mycosphaerella graminicola (Septoria tritici); experiment: Mycosphaerella graminicola (Septoria tritici) / liquid culture (Septoria blotch); type: cell-based; settings: Zymoseptoria tritici, liquid culture (PDB), growth inhibition photometrically 4-5 days after application, compared to untreated control
Protocol: Example B11. Mycosphaerella graminicola (Septoria tritici)/Liquid Culture (Septoria Blotch) Conidia of the fungus from cryogenic storage are directly mixed into nutrient broth (PDB potato dextrose broth). After placing a (DMSO) solution of test compound into a microtiter plate (96-well format), the nutrient broth containing the fungal spores is added. The test plates are incubated at 24° C. and the inhibition of growth is determined photometrically 4-5 days after application.

Alternaria solani = Alternaria solani / tomato / leaf disc (early blight); type: in vivo; settings: foliar, tomato leaf disks cv. Baby, inoculated 2 days after application, compared to untreated control
Protocol: Example B1. Alternaria solani/Tomato/Leaf Disc (Early Blight) Tomato leaf disks cv. Baby are placed on agar in multiwell plates (24-well format) and sprayed with the formulated test compound diluted in water. The leaf disks are inoculated with a spore suspension of the fungus 2 days after application. The inoculated leaf disks are incubated at 23° C./21° C. […] […]-24, and P-25.

[5] = tested on: Mycosphaerella arachidis (Cercospora arachidicola); experiment: Mycosphaerella arachidis (Cercospora arachidicola) / liquid culture (early leaf spot); type: cell-based; settings: liquid culture (PDB), growth inhibition photometrically 4-5 days after application, compared to untreated control
Protocol: Example B7. Mycosphaerella arachidis (Cercospora arachidicola)/Liquid Culture (Early Leaf Spot) Conidia of the fungus from cryogenic storage are directly mixed into nutrient broth (PDB potato dextrose broth). After placing a (DMSO) solution of test compound into a microtiter plate (96-well format), the nutrient broth containing the fungal spores is added. The test plates are incubated at 24° C. and the inhibition of growth is determined photometrically 4-5 days after application. […] […]-22, and P-25.

[6] = tested on: Puccinia recondita f. sp. tritici; experiment: Puccinia recondita f. sp. tritici / wheat / leaf disc preventative (brown rust); type: in vivo; settings: foliar, wheat leaf segments cv. Kanzler, inoculated 1 day after application, compared to untreated control
Protocol: Example B8. Puccinia recondita f. Sp. tritici/Wheat/Leaf Disc Preventative (Brown Rust) Wheat leaf segments cv. Kanzler are placed on agar in multiwell plates (24-well format) and sprayed with the formulated test compound diluted in water. The leaf disks are inoculated with a spore suspension of the fungus 1 day after application. The inoculated leaf segments are incubated at 19° C. and 75% rh under a light regime of 12 h light/12 h darkness in a climate cabinet and the activity of a compound is assessed as percent disease control compared to untreated when an appropriate level of disease damage appears in untreated check leaf segments (7-9 days after application). […] […]-25, and P-26.

CC(C)(C)CNC(=O)c1nc(Nc2cc(F)cc(F)c2)cc2c1OCO2 [Compound P-5, 6-(3,5-difluoroanilino)-N-(2,2-dimethylpropyl)-[1,3]dioxolo[4,5-c]pyridine-4-carboxamide]
≥ 80%: pest or weed control at 200 ppm (Pyrenophora teres) | pest or weed control at 200 ppm [1] | inhibition of growth at 20 ppm [2] | inhibition of growth at 20 ppm [3] | inhibition of growth at 20 ppm [4]

CC1(C)CCC1NC(=O)c1nc(Nc2cccc(F)c2)cc2c1OCO2 (stereo not drawn) [Compound P-8, N-(2,2-dimethylcyclobutyl)-6-(3-fluoroanilino)-[1,3]dioxolo[4,5-c]pyridine-4-carboxamide]
≥ 80%: pest or weed control at 200 ppm (Alternaria solani) | pest or weed control at 200 ppm (Pyrenophora teres) | inhibition of growth at 20 ppm [5] | inhibition of growth at 20 ppm [2] | pest or weed control at 200 ppm [6] | inhibition of growth at 20 ppm [3] | inhibition of growth at 20 ppm [4]

CC1(C)CCC1NC(=O)c1nc(Nc2ccccc2)cc2c1OCO2 (stereo not drawn) [Compound P-9, 6-anilino-N-(2,2-dimethylcyclobutyl)-[1,3]dioxolo[4,5-c]pyridine-4-carboxamide]
≥ 80%: pest or weed control at 200 ppm (Alternaria solani) | pest or weed control at 200 ppm (Pyrenophora teres) | inhibition of growth at 20 ppm [5] | inhibition of growth at 20 ppm [2] | inhibition of growth at 20 ppm [3] | inhibition of growth at 20 ppm [4]

CC1(C)CCC1NC(=O)c1nc(Nc2cc(F)cc(F)c2)cc2c1OCO2 (stereo not drawn) [Compound P-11, 6-(3,5-difluoroanilino)-N-(2,2-dimethylcyclobutyl)-[1,3]dioxolo[4,5-c]pyridine-4-carboxamide]
≥ 80%: inhibition of growth at 20 ppm [5] | inhibition of growth at 20 ppm [2] | pest or weed control at 200 ppm [6] | inhibition of growth at 20 ppm [3] | inhibition of growth at 20 ppm [4]

CC(C)CCNC(=O)c1nc(Nc2cc(F)nc(F)c2)cc2c1OCO2 [Compound P-12, 6-[(2,6-difluoro-4-pyridyl)amino]-N-isopentyl-[1,3]dioxolo[4,5-c]pyridine-4-carboxamide]
≥ 80%: pest or weed control at 200 ppm [6] | inhibition of growth at 20 ppm [3] | inhibition of growth at 20 ppm [4]

CC(C)(C)CNC(=O)c1nc(Nc2cccc(F)c2)cc2c1OCO2 [Compound P-15, N-(2,2-dimethylpropyl)-6-(3-fluoroanilino)-[1,3]dioxolo[4,5-c]pyridine-4-carboxamide]
≥ 80%: pest or weed control at 200 ppm (Pyrenophora teres) | inhibition of growth at 20 ppm [5] | pest or weed control at 200 ppm [1] | inhibition of growth at 20 ppm [2] | inhibition of growth at 20 ppm [3] | inhibition of growth at 20 ppm [4]

CCC(C)(C)NC(=O)c1nc(Nc2cc(F)cc(F)c2)cc2c1OCO2 [Compound P-18, 6-(3,5-difluoroanilino)-N-(1,1-dimethylpropyl)-[1,3]dioxolo[4,5-c]pyridine-4-carboxamide]
≥ 80%: pest or weed control at 200 ppm (Pyrenophora teres) | inhibition of growth at 20 ppm [5] | pest or weed control at 200 ppm [1] | inhibition of growth at 20 ppm [2] | pest or weed control at 200 ppm [6] | inhibition of growth at 20 ppm [3] | inhibition of growth at 20 ppm [4]

CC1(NC(=O)c2nc(Nc3cc(F)cc(F)c3)cc3c2OCO3)CSC1 [Compound P-19, 6-(3,5-difluoroanilino)-N-(3-methylthietan-3-yl)-[1,3]dioxolo[4,5-c]pyridine-4-carboxamide]
≥ 80%: pest or weed control at 200 ppm (Alternaria solani) | pest or weed control at 200 ppm (Pyrenophora teres) | inhibition of growth at 20 ppm [5] | pest or weed control at 200 ppm [1] | inhibition of growth at 20 ppm [2] | inhibition of growth at 20 ppm [3] | inhibition of growth at 20 ppm [4]

CC(C)(C)NC(=O)c1nc(Nc2cc(F)cc(F)c2)cc2c1OCO2 [Compound P-21, N-tert-butyl-6-(3,5-difluoroanilino)-[1,3]dioxolo[4,5-c]pyridine-4-carboxamide]
≥ 80%: pest or weed control at 200 ppm (Alternaria solani) | pest or weed control at 200 ppm (Pyrenophora teres) | inhibition of growth at 20 ppm [5] | pest or weed control at 200 ppm [1] | inhibition of growth at 20 ppm [2] | pest or weed control at 200 ppm [6] | inhibition of growth at 20 ppm [3] | inhibition of growth at 20 ppm [4]

CC1(NC(=O)c2nc(Nc3cc(F)cc(F)c3)cc3c2OCO3)CCOC1 (stereo not drawn) [Compound P-23, 6-(3,5-difluoroanilino)-N-(3-methyltetrahydrofuran-3-yl)-[1,3]dioxolo[4,5-c]pyridine-4-carboxamide]
≥ 80%: pest or weed control at 200 ppm (Alternaria solani) | pest or weed control at 200 ppm (Pyrenophora teres) | inhibition of growth at 20 ppm [2] | inhibition of growth at 20 ppm [3] | inhibition of growth at 20 ppm [4]

CC1(NC(=O)c2nc(Nc3cc(F)cc(F)c3)cc3c2OCO3)COC1 [Compound P-24, 6-(3,5-difluoroanilino)-N-(3-methyloxetan-3-yl)-[1,3]dioxolo[4,5-c]pyridine-4-carboxamide]
≥ 80%: pest or weed control at 200 ppm (Alternaria solani) | pest or weed control at 200 ppm [1] | inhibition of growth at 20 ppm [2] | inhibition of growth at 20 ppm [3] | inhibition of growth at 20 ppm [4]

CC1(NC(=O)c2nc(Nc3cc(F)cc(F)c3)cc3c2OCO3)CCCC1 [Compound P-25, 6-(3,5-difluoroanilino)-N-(1-methylcyclopentyl)-[1,3]dioxolo[4,5-c]pyridine-4-carboxamide]
≥ 80%: pest or weed control at 200 ppm (Alternaria solani) | pest or weed control at 200 ppm (Pyrenophora teres) | inhibition of growth at 20 ppm [5] | pest or weed control at 200 ppm [1] | inhibition of growth at 20 ppm [2] | pest or weed control at 200 ppm [6] | inhibition of growth at 20 ppm [3] | inhibition of growth at 20 ppm [4]

CC1(NC(=O)c2nc(Nc3cc(F)cc(F)c3)cc3c2OCO3)CCCCC1 [Compound P-26, 6-(3,5-difluoroanilino)-N-(1-methylcyclohexyl)-[1,3]dioxolo[4,5-c]pyridine-4-carboxamide]
≥ 80%: pest or weed control at 200 ppm (Pyrenophora teres) | pest or weed control at 200 ppm [1] | inhibition of growth at 20 ppm [2] | pest or weed control at 200 ppm [6] | inhibition of growth at 20 ppm [3] | inhibition of growth at 20 ppm [4]
